Measured values taken from PMC12508063, “Chloroindazole based estrogen receptor β ligands with favorable pharmacokinetics promote functional remyelination and visual recovery” (Scientific Reports, 2025).
“And” between values parts separate entries of the source, which are not always exact repeats. Identical values can stand only once.

Legend:
ERβ = target: T1, ERβ (Homo sapiens, UniProt Q92731); test: ER reporter gene assay in HEK 293 T cells (ER-luciferase reporter); type: cell-based; details: for Reporter gene assay raw data, ERb: ERb data block (head r19), 4 replicate columns; for ERb reporter gene assay raw data (response): four replicate columns per compound
T1 construct: expressed in transfected cells; host or cells: HEK 293 T cells

ERα = target: T2, ERα (Homo sapiens, UniProt P03372); test: as above; type: cell-based; details: for Reporter gene assay raw data, ERa: 4 replicate columns
T2 construct: expressed in transfected cells; host or cells: HEK 293 T cells
T2 sequence (P03372 1-595): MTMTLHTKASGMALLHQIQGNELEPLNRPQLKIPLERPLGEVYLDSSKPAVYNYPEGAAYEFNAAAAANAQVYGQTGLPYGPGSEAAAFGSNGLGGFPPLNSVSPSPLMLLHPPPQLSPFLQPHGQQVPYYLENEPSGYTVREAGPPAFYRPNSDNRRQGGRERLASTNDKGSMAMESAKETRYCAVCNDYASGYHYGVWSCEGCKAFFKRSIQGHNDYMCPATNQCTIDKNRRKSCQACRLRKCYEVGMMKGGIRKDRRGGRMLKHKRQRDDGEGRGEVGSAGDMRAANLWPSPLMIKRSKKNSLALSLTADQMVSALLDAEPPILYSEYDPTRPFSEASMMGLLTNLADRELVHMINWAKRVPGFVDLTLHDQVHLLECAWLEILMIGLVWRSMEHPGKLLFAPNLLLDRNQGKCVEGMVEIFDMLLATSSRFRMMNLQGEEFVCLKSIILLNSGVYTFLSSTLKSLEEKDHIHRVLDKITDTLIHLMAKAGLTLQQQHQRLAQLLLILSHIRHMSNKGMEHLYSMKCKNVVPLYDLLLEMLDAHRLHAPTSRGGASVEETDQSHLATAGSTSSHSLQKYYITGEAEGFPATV

T1 sequence (Q92731 whole entry, species assumed): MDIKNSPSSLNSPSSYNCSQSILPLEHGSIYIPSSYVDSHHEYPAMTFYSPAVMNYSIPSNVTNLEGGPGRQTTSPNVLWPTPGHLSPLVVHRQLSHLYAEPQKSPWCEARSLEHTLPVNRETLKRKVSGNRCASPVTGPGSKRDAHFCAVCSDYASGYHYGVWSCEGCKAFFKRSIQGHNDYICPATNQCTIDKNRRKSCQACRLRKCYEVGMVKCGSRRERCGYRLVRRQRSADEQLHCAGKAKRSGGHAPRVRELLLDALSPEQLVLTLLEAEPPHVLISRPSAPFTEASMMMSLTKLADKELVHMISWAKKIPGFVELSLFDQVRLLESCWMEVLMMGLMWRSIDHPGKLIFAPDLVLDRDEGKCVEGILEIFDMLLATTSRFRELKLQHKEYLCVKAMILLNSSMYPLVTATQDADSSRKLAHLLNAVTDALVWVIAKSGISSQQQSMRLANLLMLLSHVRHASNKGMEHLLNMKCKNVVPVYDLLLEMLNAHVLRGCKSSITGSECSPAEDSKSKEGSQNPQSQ

C[C@]12CC[C@@H]3c4ccc(O)cc4CC[C@H]3[C@@H]1CC[C@@H]2O [Compound E2, estradiol]
Reporter gene assay raw data, ERb (ERβ; Log M -6): 88.8232 and 101.64 and 110.514 and 90.7218 | ERb reporter gene assay raw data (response) (ERβ; Log M -6): 84.0609 and 88.7479 and 111.697 and 94.4619 | Reporter gene assay raw data, ERb (ERβ; Log M -6.47756): 97.0869 and 99.8524 and 105.457 and 96.3817 | ERb reporter gene assay raw data (response) (ERβ; Log M -6.47756): 91.3063 and 103.043 and 96.9565 and 108.694 | Reporter gene assay raw data, ERb (ERβ; Log M -6.95468): 101.657 and 108.929 and 91.071 and 98.3432 | ERb reporter gene assay raw data (response) (ERβ; Log M -6.95468): 85.5094 and 93.8773 and 82.9145 and 86.4119 | Reporter gene assay raw data, ERb (ERβ; Log M -7.4318): 88.9611 and 107.81 and 89.4793 | ERb reporter gene assay raw data (response) (ERβ; Log M -7.4318): 92.1619 and 99.8727 and 93.6976 and 98.6683 | Reporter gene assay raw data, ERb (ERβ; Log M -7.91009): 87.7241 and 103.45 and 96.1824 and 92.6694 | ERb reporter gene assay raw data (response) (ERβ; Log M -7.91009): 89.9017 and 89.3359 and 90.9076 and 106.617 | Reporter gene assay raw data, ERb (ERβ; Log M -8.3851): 90.4631 and 100.397 and 90.4263 and 91.0339 | ERb reporter gene assay raw data (response) (ERβ; Log M -8.3851): 91.9536 and 86.2134 and 78.7089 and 97.5579 | Reporter gene assay raw data, ERb (ERβ; Log M -8.86328): 79.9036 and 104.483 and 99.1546 and 93.2724 | ERb reporter gene assay raw data (response) (ERβ; Log M -8.86328): 95.1963 and 89.1365 and 87.1229 and 89.1607 | Reporter gene assay raw data, ERb (ERβ; Log M -9.34008): 95.3149 and 101.905 and 91.5426 and 83.1517 | ERb reporter gene assay raw data (response) (ERβ; Log M -9.34008): 83.69 and 95.3591 and 88.894 and 92.378 | Reporter gene assay raw data, ERb (ERβ; Log M -9.81816): 104.147 and 95.8332 and 93.5201 and 92.5995 | ERb reporter gene assay raw data (response) (ERβ; Log M -9.81816): 83.8842 and 77.8861 and 83.3564 and 89.1956 | Reporter gene assay raw data, ERb (ERβ; Log M -10.2941): 77.6845 and 76.952 and 81.0679 and 77.2912 | ERb reporter gene assay raw data (response) (ERβ; Log M -10.2941): 80.3017 and 74.375 and 74.4575 and 76.8278 | Reporter gene assay raw data, ERb (ERβ; Log M -10.7721): 31.1486 and 35.6178 and 35.7979 and 36.2215 | ERb reporter gene assay raw data (response) (ERβ; Log M -10.7721): 27.7709 and 32.5606 and 30.8658 | Reporter gene assay raw data, ERb (ERβ; Log M -11.248): 7.1742 and 11.1236 and 8.004 and 9.347 | ERb reporter gene assay raw data (response) (ERβ; Log M -11.248): 5.759 and 5.232 and 4.796 and 6.634 | ERb reporter gene assay raw data (response) (ERβ; Log M -13): -0.5566 and 0.8119 and -0.8119 and 0.5566

Oc1ccc([C@@H]2Oc3ccc(O)cc3[C@@H]3CCC[C@@H]32)cc1 [LY500307]
Reporter gene assay raw data, ERa (ERα; Log M -6, first ERa data block (head r2)): 95.3498 and 76.8258 and 78.8468 and 79.4968 | Reporter gene assay raw data, ERa (ERα; Log M -6, second ERa data block (head r34)): 84.2897 and 88.4184 and 89.8518 and 82.7548 | Reporter gene assay raw data, ERa (ERα; Log M -6.47756, first ERa data block (head r2)): 81.0788 and 76.9627 and 81.3158 and 77.2241 | Reporter gene assay raw data, ERa (ERα; Log M -6.47756, second ERa data block (head r34)): 83.7373 and 79.8906 and 79.6354 and 82.4556 | Reporter gene assay raw data, ERa (ERα; Log M -6.95468, first ERa data block (head r2)): 64.5612 and 69.8569 and 66.3267 and 71.602 | Reporter gene assay raw data, ERa (ERα; Log M -6.95468, second ERa data block (head r34)): 71.7534 and 71.241 and 72.7885 and 70.2307 | Reporter gene assay raw data, ERa (ERα; Log M -7.4318, first ERa data block (head r2)): 51.8548 and 63.5801 and 59.7283 and 55.8203 | Reporter gene assay raw data, ERa (ERα; Log M -7.4318, second ERa data block (head r34)): 63.921 and 68.3671 and 59.0742 and 56.656 | Reporter gene assay raw data, ERa (ERα; Log M -7.91009, first ERa data block (head r2)): 45.1889 and 57.478 and 50.9227 and 51.1094 | Reporter gene assay raw data, ERa (ERα; Log M -7.91009, second ERa data block (head r34)): 50.9317 and 49.5895 and 46.336 and 52.0394 | Reporter gene assay raw data, ERa (ERα; Log M -8.3851, first ERa data block (head r2)): 49.7552 and 47.0158 and 40.3598 and 42.6852 | Reporter gene assay raw data, ERa (ERα; Log M -8.3851, second ERa data block (head r34)): 51.0127 and 45.6306 and 44.3415 and 46.4772 | Reporter gene assay raw data, ERa (ERα; Log M -8.86328, first ERa data block (head r2)): 31.993 and 35.5083 and 37.6374 and 35.7027 | Reporter gene assay raw data, ERa (ERα; Log M -8.86328, second ERa data block (head r34)): 42.4323 and 38.564 and 35.9099 and 35.545 | Reporter gene assay raw data, ERa (ERα; Log M -9.34008, first ERa data block (head r2)): 17.3101 and 15.2621 and 18.8474 and 18.6811 | Reporter gene assay raw data, ERa (ERα; Log M -9.34008, second ERa data block (head r34)): 21.5928 and 20.6886 and 16.8312 and 20.0407 | Reporter gene assay raw data, ERa (ERα; Log M -9.81816, first ERa data block (head r2)): 8.154 and 4.486 and 4.8306 and 4.983 | Reporter gene assay raw data, ERa (ERα; Log M -9.81816, second ERa data block (head r34)): 6.6406 and 6.967 and 4.962 and 7.591 | Reporter gene assay raw data, ERa (ERα; Log M -10.2941, first ERa data block (head r2)): 3.132 and 9.724 and 4.561 and 11.8118 | Reporter gene assay raw data, ERa (ERα; Log M -10.2941, second ERa data block (head r34)): 3.775 and 13.8366 and 4.292 and 12.8533 | Reporter gene assay raw data, ERa (ERα; Log M -10.7721, first ERa data block (head r2)): 1.451 and 1.5656 and -0.4526 and 1.85 | Reporter gene assay raw data, ERa (ERα; Log M -10.7721, second ERa data block (head r34)): -0.2019 and 1.235 and 0.142 and 1.333 | Reporter gene assay raw data, ERa (ERα; Log M -11.248, first ERa data block (head r2)): -0.6879 and -0.2253 and -0.584 and 0.4876 | Reporter gene assay raw data, ERa (ERα; Log M -11.248, second ERa data block (head r34)): -0.9111 and -0.3248 and 1.487 and 1.068 | ERa reporter gene assay raw data (response) (ERα; Log M -13, four replicate columns per compound): 0.8253 and -0.8253 and 1.478 and -1.478
